According to the supplement of paper PMC5579334:

Columns and labels:
HS-Sch-2 [1] = assay: drug sensitivity score (DSS, CellTiter-Glo viability, 72 h) (DSS (dimensionless)); higher = more sensitive; extreme values may be limits of the assay
How it was run: (§1)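 Viability was scored by CellTiter-Glo ATP luminescence, scaled from vehicle to positive-control wells, with duplicates averaged where present. The cells, MPNST lines and primary human Schwann cells at 750–1000 per well, sat 72 h at 37 °C, 5% CO2, in 384-well plates preprinted with each compound at five concentrations in 10-fold steps. Four-parameter logistic fits were run on the data. These fits give drug sensitivity score and relative IC50 censored at the top concentration, and percent inhibition is reported at the top concentration.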

YST-1 [2] = assay: as above
How it was run: as §1

HS-PSS [3] = assay: as above
How it was run: as §1

HS-PSS [4] = assay: drug sensitivity score (DSS, CellTox-Green cytotoxicity, 72 h) (DSS (dimensionless)); higher = more cytotoxic; extreme values may be limits of the assay
How it was run: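 MPNST cell lines and primary human Schwann cells were incubated 72 h at 37 °C in 384-well plates holding five 10-fold compound dilutions. CellTox-Green was added before seeding at a final 1:1000 dilution and reported fluorescence from DNA released by disrupted cells. Signals were scaled to vehicle and positive-control wells, and cultures failing plate quality control were dropped. Drug sensitivity score and relative IC50 come from four-parameter logistic fits, with IC50 censored at the top concentration.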

HS-Sch-2 [5] = assay: % inhibition of CellTiter-Glo viability at highest tested concentration (72 h), relative to DMSO and benzethonium chloride controls; higher = more inhibition
How it was run: as §1

YST-1 [6] = assay: as above
How it was run: as §1

HS-PSS [7] = assay: as above
How it was run: as §1

| Structure (SMILES) | drug sensitivity score (HS-Sch-2 [1]) | drug sensitivity score (YST-1 [2]) | drug sensitivity score (HS-PSS [3]) | drug sensitivity score (HS-PSS [4]) | % inhibition (HS-Sch-2 [5]) | % inhibition (YST-1 [6]) | % inhibition (HS-PSS [7]) |
| --- | --- | --- | --- | --- | --- | --- | --- |
| Cc1ccccc1C(C(=O)NC1CCCCC1)N(C(=O)Cn1ccnc1C)c1cccc(F)c1 (configuration not stated) [AGI-5198] (max concentration tested 10000 nM) | 0.6 | 0 | 0.2 | 0 | 4.74% | 1.43% | 11.5% |
| CCCCCCCCCCCCCCCCCCOP(=O)([O-])OC1CC[N+](C)(C)CC1 [Perifosine] (max concentration tested 2500 nM) | 0 | 0 | 0 | 0 | 4.74% | -0.19% | 0.4% |
| Cc1cc(C(=O)NOCCO)c(Nc2ccc(I)cc2F)n(C)c1=O [AZD-8330] (max concentration tested 10000 nM) | 11.6 | 0 | 8.85 | 0 | 53.5% | 3.34% | 51.1% |
| FC(F)(F)c1ccc(/C=C/c2nc(COc3ccc(CCCCn4ccnn4)cc3)co2)cc1 [Mubritinib] (max concentration tested 1000 nM) | 12.9 | 6.65 | 17.4 | 0 | 62.9% | 28.4% | 74.8% |
| c1ccc(Cn2c(-c3ccc(OC[C@H](C4CCNCC4)n4c(-c5ccccc5)nc5ccccc54)cc3)nc3ccccc32)cc1 [deltarasin] (max concentration tested 10000 nM) | 5.77 | 5.29 | 6.88 | 5.68 | 101% | 100% | 101% |
| NS(=O)(=O)NCCNc1nonc1/C(=N/O)Nc1ccc(F)c(Br)c1 [Epacadostat] (max concentration tested 10000 nM) | 0.29 | 0 | 0 | 0 | 13.3% | 12.5% | 6.08% |
| C[C@@H](Oc1ccc2[nH]nc(/C=C/c3cnn(CCO)c3)c2c1)c1c(Cl)cncc1Cl (max concentration tested 1000 nM) | 6.87 | 6.1 | 7.62 | 2.66 | 67.9% | 55.4% | 91% |
| S=C(NCc1ccc2c(c1)OCO2)N1CCN(c2ncnc3c2oc2ccccc23)CC1 [Amuvatinib] (max concentration tested 10000 nM) | 6.77 | 1.22 | 9.62 | 0 | 86.5% | 31.3% | 83.6% |
| Cn1cnc2c(F)c(Nc3ccc(Br)cc3F)c(C(=O)NOCCO)cc21 [Binimetinib] (max concentration tested 1000 nM) | 0.81 | 0 | 0 | 0 | 21.1% | 6.26% | 7.79% |
| O[C@H]1CC[C@H](Nc2ncc3nc(Nc4c(F)cc(F)cc4F)n([C@H]4CCOC4)c3n2)CC1 [Tanzisertib] (max concentration tested 10000 nM) | 0 | 1.56 | 0 | 0 | -2.81% | 11.6% | -0.16% |
| COc1ccc(COc2cc3oc(=O)c4cc(C(C)O)ccc4c3cc2OC)cc1 (configuration not stated) [Palomid-529] (max concentration tested 10000 nM) | 0 | 0 | 0 | 0 | -4.31% | 10.2% | 2.33% |
| CN(C)Cc1ccc(S(=O)(=O)n2ccc(/C=C/C(=O)NO)c2)cc1 [Resminostat] (max concentration tested 10000 nM) | 7.57 | 13.8 | 6.36 | 2.12 | 100% | 101% | 84.1% |
| C[C@@H]1COC(Nc2ccc3ncnc(Nc4ccc(OCc5nccs5)c(Cl)c4)c3c2)=N1 [Varlitinib] (max concentration tested 10000 nM) | 2.41 | 3.23 | 5.07 | 0 | 30.6% | 27.7% | 42% |
| O=C(NC1CCNCC1)c1n[nH]cc1NC(=O)c1c(Cl)cccc1Cl [AT7519] (max concentration tested 10000 nM) | 17.6 | 26 | 15.3 | 1.85 | 99.7% | 98.7% | 73.5% |
| COc1ccc(Cn2ccc3ccc(C(=O)NO)cc32)cc1 (max concentration tested 10000 nM) | 2.02 | 5.14 | 0.33 | 0 | 46.8% | 56.2% | 18.1% |
| CCN(CC)C(=S)SSC(=S)N(CC)CC [Disulfiram] (max concentration tested 100000 nM) | 27 | 30.7 | 30.6 | 8.67 | 101% | 101% | 101% |
| CC1CCC(n2c3cnccc3c3cnc(Nc4ccc5c(n4)CCN(C(=O)CO)C5)nc32)CC1 (configuration not stated) [AMG-925] (max concentration tested 1000 nM) | 0.03 | 0.02 | 0 | 0 | 12.2% | 6.95% | 9.07% |
| CC(=O)O[C@]1(C(C)=O)CC[C@H]2[C@@H]3C=C(C)C4=CC(=O)CC[C@]4(C)[C@H]3CC[C@@]21C [Megestrol acetate] (max concentration tested 10000 nM) | 0 | 0 | 0 | 0 | 2.53% | 6.88% | -2.66% |

| Structure (SMILES) | drug sensitivity score (HS-Sch-2 [1]) | drug sensitivity score (YST-1 [2]) | drug sensitivity score (HS-PSS [3]) | drug sensitivity score (HS-PSS [4]) | % inhibition (HS-Sch-2 [5]) | % inhibition (YST-1 [6]) | % inhibition (HS-PSS [7]) |
| --- | --- | --- | --- | --- | --- | --- | --- |
| NC[C@@](O)(c1ccc(Cl)cc1)c1ccc(-c2cn[nH]c2)cc1 (max concentration tested 10000 nM) | 8.76 | 4.33 | 7.75 | 6.26 | 91.8% | 73.8% | 97.9% |
| OCCn1cc(-c2cnc3nnn(Cc4ccc5ncccc5c4)c3n2)cn1 (max concentration tested 2500 nM) | 0 | 0.62 | 0.05 | 0 | 0.31% | 18.5% | 9.08% |
| CON(C)C(=O)N1N=C(c2cc(F)ccc2F)S[C@@]1(CCCN)c1ccccc1 [Filanesib] (max concentration tested 1000 nM) | 29.1 | 25.7 | 7.81 | 0 | 88.7% | 78.3% | 29% |
| C=CC(=O)Nc1cccc(Nc2nc(Nc3ccc(N4CCN(C(C)=O)CC4)cc3OC)ncc2C(F)(F)F)c1 [Rociletinib] (max concentration tested 10000 nM) | 4.99 | 8.73 | 4.91 | 3.25 | 80.9% | 95.2% | 86.4% |
| CCn1nnc2c(N3CCOCC3)nc(-c3ccc(NC(=O)Nc4ccc(C(=O)N5CCN(C)CC5)cc4)cc3)nc21 [PKI-402] (max concentration tested 2500 nM) | 12.4 | 17.3 | 15.3 | 0.89 | 75.5% | 90.9% | 75.8% |
| O=c1ncn2nc(Sc3ccc(F)cc3F)ccc2c1-c1c(Cl)cccc1Cl [VX 745] (max concentration tested 10000 nM) | 0.7 | 3.73 | 0.47 | 0 | 22.6% | 31.1% | 21.1% |
| OC(CC1c2ccccc2-c2cncn21)C1CCCCC1 (configuration not stated) [NLG919] (max concentration tested 10000 nM) | 0 | 0 | 0 | 0 | 0.68% | 10.1% | 7.55% |
| COc1cc(NS(C)(=O)=O)ccc1Nc1c2ccccc2nc2ccccc12 [Amsacrine] (max concentration tested 10000 nM) | 11.1 | 15.6 | 5.76 | 1.27 | 81.6% | 86.6% | 55% |
| CCNC(=O)C[C@@H]1N=C(c2ccc(Cl)cc2)c2cc(OC)ccc2-n2c(C)nnc21 (max concentration tested 10000 nM) | 8.49 | 10.2 | 7.28 | 0 | 63.1% | 65.3% | 58.4% |
| CC[C@H](NC(=O)[C@H](C)NC)C(=O)N1C[C@@H](O)C[C@H]1Cc1c(-c2[nH]c3cc(F)ccc3c2C[C@@H]2C[C@H](O)CN2C(=O)[C@H](CC)NC(=O)[C@H](C)NC)[nH]c2cc(F)ccc12 [Birinapant] (max concentration tested 1000 nM) | 0 | 0 | 0 | 0 | 6.12% | 2.35% | 10.7% |
| N.N.[Cl][Pt][Cl] [Cisplatin] (max concentration tested 100000 nM) | 23.1 | 13.8 | 13.1 | 9.13 | 100% | 95.9% | 86.4% |
| CN1CCC(CNc2ccc3ncc(-c4cccc(OC(F)(F)F)c4)n3n2)CC1 [SGI-1776] (max concentration tested 10000 nM) | 7.09 | 9 | 6.88 | 6.8 | 101% | 101% | 101% |
| CCn1c(=O)c(-c2cc[nH]n2)cc2c(C)nc(N)nc21 [Voxtalisib] (max concentration tested 10000 nM) | 4.83 | 9.29 | 3.33 | 0 | 64.5% | 86.5% | 48.4% |
| C[C@H]1C=C2C(=O)O[C@H]3CC[C@@H](C1)[C@@]23O [Galiellalactone] (max concentration tested 25000 nM) | 7.88 | 2.78 | 3.82 | 0 | 93.5% | 64.8% | 58.6% |
| Cc1c(F)cc(C(=O)NC2CC2)cc1-c1ccc(C(=O)NCC(C)(C)C)cn1 [Losmapimod] (max concentration tested 10000 nM) | 0 | 10.1 | 0 | 0 | 1.17% | 32.3% | 8.01% |
| CN(C)C1CCN(C(=O)c2ccc(NC(=O)Nc3ccc(-c4nc(N5CCOCC5)nc(N5CCOCC5)n4)cc3)cc2)CC1 [Gedatolisib] (max concentration tested 1000 nM) | 12 | 19.4 | 17.4 | 0 | 80.3% | 93.2% | 73.4% |
| Cc1c(C(=O)Nc2ccc(N3C[C@@H](C)O[C@@H](C)C3)nc2)cccc1-c1ccc(OC(F)(F)F)cc1 [Sonidegib] (max concentration tested 10000 nM) | 1.21 | 0 | 3.23 | 0 | 22.7% | 8.09% | 30.6% |
| NCC(=O)Nc1ccc(-n2nc(C(F)(F)F)cc2-c2ccc3c(ccc4ccccc43)c2)cc1 (max concentration tested 25000 nM) | 7.03 | 5.55 | 4.86 | 7.95 | 101% | 101% | 101% |
